Results reported in ChEMBL document CHEMBL3988442, “University of Dundee, Small-Polar-MMV Screening Library” (2021).

How the values were obtained:
[1] = microbe, parasite or virus in culture; conditions: Mycobacterium tuberculosis, 96 h, read-out: pIC50 (converted)
[2] = microbe, parasite or virus in culture; conditions: Mycobacterium tuberculosis, 72 h, read-out: pIC50 (converted)

| SMILES | IC50 [1] [µM] | IC50 [2] [µM] |
| --- | --- | --- |
| CC(C)c1cccc(S(=O)(=O)N(C)Cc2nnc[nH]2)c1 | > 501 | > 501 |
| N#Cc1nc(NCCSCCCO)ccc1Cl | 418 | 221 |
| COc1ccc(F)c(-c2cc(C(=O)NC3CC3)ccn2)c1 | 10.6 | 22.7 |
| COc1cccc(C(=O)NCc2ccoc2C)n1 | > 501 | 364 |
| COC(=O)C1CC(c2ccccc2)=NO1 (stereo not drawn) | > 501 | > 501 |
| CN(Cc1ccc(Br)o1)C(=O)c1nccnc1N | 414 | 210 |
| CC(C)Cn1ccnc1CNc1ncccc1F | 382 | 307 |
| Cc1nc(N2CCCC2)nc2c1CCN(Cc1ccco1)CC2 | 4.23 | 4.72 |
| N#CCCn1ncc2c(NCc3cccs3)ncnc21 | > 501 | 399 |
| CN(Cc1c(F)cccc1Cl)C(=O)CNC(=O)C1CC1 | 71 | 237 |
| O=C1OCCC1Sc1nnc(Nc2ccccc2)s1 (stereo not drawn) | > 501 | 455 |
| CC(C)c1cc(C(=O)NCCCN(C)C)nc(N2CCCC2)n1 | 31.2 | 30 |
| Fc1cccc(-c2noc(C3CCCN3)n2)c1 (stereo not drawn) | 286 | 271 |
| CCSc1nnc(-c2ccc[nH]2)o1 | 188 | 169 |
| COCCC(=O)NCC(C)c1ccc(F)c(F)c1 (stereo not drawn) | > 501 | > 501 |
| NCCCC(=O)N(Cc1ccccc1F)C1CCC1 | > 501 | 231 |
| CC(C)N(CCNc1nc(C2CCCC2)nc2c1cnn2C)C(C)C | 18.7 | 20.6 |
| CCCn1cc(CNc2ccc(F)cn2)cn1 | 234 | 160 |
| CN(CC(C)(CO)CO)c1ncc(Cl)cc1Cl | 301 | 122 |
| FC(F)(F)c1ccnc(N2CCC(c3nccn3CC3CC3)CC2)n1 | 16.3 | 44.6 |
| COc1c(C)cnc(CSc2nnc(N)s2)c1C | > 50.1 | > 50.1 |
| NCC1CN(c2nc3cc(Cl)ccc3o2)CCO1 (stereo not drawn) | 271 | 75.2 |
| COc1ccc(OC)c(NC(=O)c2ccccn2)c1 | 156 | 173 |
| O=C(NCc1ccnc(N2CCCC2)c1)c1ccsc1 | 141 | 114 |
| CCOCC(=O)NCC(Cc1cccc(F)c1)n1cccc1 (stereo not drawn) | 11.7 | 10.4 |
| O=C(c1cc2c([nH]c1=O)CCC2)N1CCCC1c1ccccc1 (stereo not drawn) | > 50.1 | > 50.1 |

| SMILES | IC50 [1] [µM] | IC50 [2] [µM] |
| --- | --- | --- |
| Cc1cccc(NCC(=O)NC2CCCCC2)n1 | 148 | 152 |
| N#Cc1cccnc1NC1CCN(c2ccccc2OC(F)F)C1=O (stereo not drawn) | 1.27 | > 50.1 |
| CCC1(NC(=O)c2coc(S(=O)(=O)N(C)C)c2)CCC1 | > 501 | > 501 |
| Fc1ccc(Cn2ncc3c2CN(c2noc(C4CC4)n2)C3)cc1 | 26.5 | > 50.1 |
| CC(C)Oc1ccc(CNC(=O)N2CCCC2)cn1 | 118 | 126 |
| CNC1CCN(c2cc(OC)cc(OC)c2)C1 (stereo not drawn) | 225 | 309 |
| CCCNC(=O)c1ccc2c(c1)NC(=O)C(C)S2 (stereo not drawn) | > 501 | 406 |
| Cn1ccc(CNC(=O)NCC2CC2)c1 | > 501 | > 501 |
| O=C(NCCc1cccnc1)c1cc(C2CC2)on1 | > 501 | > 501 |
| NCCCNS(=O)(=O)c1ccc(Br)c(F)c1 | > 501 | 189 |
| CCc1c(C)n(CCC#N)c2nc3ccccc3n2c1=O | > 50.1 | > 50.1 |
| CN(CCC(O)c1ccccc1)C(=O)c1cc(Cl)c[nH]1 (stereo not drawn) | 485 | 237 |
| O=C(NCc1ccc(Br)o1)[C@@H]1CCCO1 | > 501 | 242 |
| Cn1c(SCCCO)nnc1-c1ccccc1F | 279 | 275 |
| CN(Cc1ccco1)C(=O)c1cccc(C#N)c1 | > 501 | > 501 |
| O=C(c1ccnn1COc1ccc(Cl)cc1)N1CCCC1 | > 50.1 | > 50.1 |
| COC(=O)c1ccc(CSc2n[nH]c(C)n2)o1 | 181 | 239 |
| CCN(CC)CCn1cnc(-c2ccccc2)c1-c1ncc[nH]1 | 27.2 | > 50.1 |
| O=C(c1cc(COc2ccc3c(c2)OCO3)[nH]n1)N1CCSCC1 | 33.5 | 31.8 |
| CCc1ccc(C(=O)CSc2nnc(N)[nH]2)cc1 | 449 | 176 |
| CCNc1ncc(C(=O)N(C)Cc2ccsc2)cn1 | > 501 | > 501 |
| CCCc1nn(Cc2ccc(Br)s2)c(=O)o1 | 25.4 | 31.8 |
| C[C@H](c1ccc(Cl)cc1)n1c(CCN)n[nH]c1=O | > 501 | 38.3 |
| O=C(Nc1cc(Cl)ccc1F)C1=COCCO1 | 265 | 228 |
| NCC1CCCN(c2ncccn2)C1 (stereo not drawn) | > 501 | 288 |
| Cc1ccc(S(=O)(=O)N2CCC[C@@H](N)C2)c(C)c1 | 276 | 219 |

| SMILES | IC50 [1] [µM] | IC50 [2] [µM] |
| --- | --- | --- |
| NCc1nc(-c2cccc(Cl)c2)no1 | > 501 | 323 |
| c1nsnc1-c1nc(C2CCCO2)no1 (stereo not drawn) | > 501 | 118 |
| N#CCOC(=O)c1ccc2c(c1)OCCCO2 | 182 | > 501 |
| Cc1cc2c(cc1S(=O)(=O)N1CCCC(N)C1)OCO2 (stereo not drawn) | > 501 | 261 |
| CC1=NOC(C(=O)NCCc2nc3c(s2)CCCC3)C1 (stereo not drawn) | 286 | 169 |
| CN1CCN(C(=O)c2cc3ccccc3o2)CC1 | 203 | 207 |
| CCCn1cc(CNc2nc(C3CC3)no2)cn1 | 151 | 125 |
| c1cncc(-c2nc(SCC3CCCCO3)n[nH]2)c1 (stereo not drawn) | > 501 | 229 |
| NC(=O)CCS(=O)(=O)CCN1CCCCCC1 | > 501 | 158 |
| CN1CN(Cc2ccc(Cl)o2)CC1=O | > 501 | > 501 |
| CCN(C(=O)CN1CCCC1Cc1ccccc1)c1ccccc1 (stereo not drawn) | > 50.1 | 44.2 |
| Cc1cc(S(=O)(=O)N2CCCC2CN)sc1C (stereo not drawn) | > 501 | 141 |
| CC(C)Cc1ccc(CS(=O)(=O)CCO)cc1 | 83.5 | 353 |
| CCn1ccnc1CN1CCCC1Cn1cc(C)cn1 (stereo not drawn) | > 50.1 | 46.3 |
| Cc1nc2c(c(N3CCC(CCn4cccn4)CC3)n1)CCNCC2 | > 50.1 | > 50.1 |
| CC(C)c1cc(CN2CCNCC2)no1 | > 50.1 | 32.6 |
| O=C(c1cnc(C2CC2)nc1)N1CCCC(c2nccs2)C1 (stereo not drawn) | 6.43 | 8.4 |
| O=C(c1cnsn1)N1CCCSc2ccc(F)cc21 | 164 | 200 |
| O=C(COc1ccc(F)cc1)Nc1ccon1 | > 501 | 186 |
| COc1cccc(C2=NN=C(NC3CC3)SC2)c1 | 111 | 97.4 |
| CC(C)C(C)N(C)Cc1nnc(-c2ccc(Br)s2)o1 (stereo not drawn) | 20.4 | 48.4 |
| O=C(CC1Sc2ccc(Cl)cc2NC1=O)OCCO (stereo not drawn) | 286 | 222 |
| CC(C)(C)n1cc(NC(=O)C2CN(Cc3ccccc3)CCO2)cn1 (stereo not drawn) | > 50.1 | > 50.1 |
| CNCC(=O)NC(C)c1nc(-c2ccc(Br)cc2)no1 (stereo not drawn) | 261 | 197 |
| CCN(C)C(=O)Nc1ccc(C(=O)OC)c(F)c1 | > 501 | > 501 |
| c1ccc(NC2CCN(C3CCCC3)C2)nc1 (stereo not drawn) | > 501 | > 501 |

| SMILES | IC50 [1] [µM] | IC50 [2] [µM] |
| --- | --- | --- |
| CCc1nnsc1C(=O)N1CCc2sccc2C1 | > 501 | 176 |
| COCC(=O)NCCc1cc(Cl)c2c(c1)OCCO2 | 176 | 216 |
| CCC(C)(C)NC(=O)c1ccn(-c2ccccc2F)n1 | 350 | 361 |
| CCCc1nnc(N2CCC3(CC2)OCC(C)O3)s1 (stereo not drawn) | 45.5 | 34.3 |
| CC(C)Oc1cccc(-c2cnn(CCC(N)=O)c2)c1 | 382 | 264 |
| CN(CCOc1ccc(Cl)cc1)C(=O)C(C)(C)CN | 276 | 216 |
| COc1cc(Cl)ccc1CN | 279 | > 501 |
| COc1cc(C)c(S(=O)(=O)N2C[C@@H](O)[C@@H](O)C2)cc1C | > 501 | 229 |
| CN(CCc1ccccc1)CCS(=O)(=O)CCC(N)=O | 175 | 442 |
| COC(=O)NCC(=O)N(C)c1ccc2ccccc2c1 | > 501 | 129 |
| O=C(c1cc(C2CC2)[nH]n1)N1CCN(Cc2ccc3c(c2)OCO3)CC1 | 10.3 | 9.81 |
| CSCc1ccc(C(=O)N2CC(CC(N)=O)C2)cc1 | > 501 | > 501 |
| CCC(C)c1cc(C(=O)Nc2ncccc2O)on1 (stereo not drawn) | 268 | 178 |
| Cn1cc(NC(=O)CNC(=O)N2CCN(c3ccccc3)CC2)cn1 | > 50.1 | > 50.1 |
| CSc1nccc(N2CCC3(CCCN(Cc4ccc(F)cc4)C3)C2)n1 (stereo not drawn) | 25.2 | 27.2 |
| COc1ccccc1C(O)CNc1cccc(C)n1 (stereo not drawn) | 136 | > 501 |
| O=C(O)[C@@H]1CN(C(=O)NCC2CCCCC2)C[C@H]1c1ccccn1 | > 50.1 | > 50.1 |
| CN(Cc1nc2ccccc2o1)C1CCCN(c2cccnn2)C1 (stereo not drawn) | > 50.1 | > 50.1 |
| COCCNC(=O)c1cc2cc(C)ccc2n1C | > 501 | 173 |
| CCOc1ccc2cc(S(=O)(=O)NCCO)ccc2c1 | 9.01 | 5.84 |
| O=C1[C@H]2CN(C3CCOC3)C[C@H]2CN1c1ccccc1 (stereo partly drawn) | > 50.1 | > 50.1 |
| COc1ccc(CCN)c(O)c1 | 435 | 153 |
| N[C@H]1CN(S(=O)(=O)c2cccc(Cl)c2)C[C@@H]1C1CC1 | > 501 | 363 |
| Cc1cnn(CCNCCCOc2ccc3c(c2)OCO3)c1 | 13.6 | 13.9 |
| Cc1ccccc1OCCCNC(=O)NC[C@@H](C)O | > 501 | > 501 |
| COCCN(Cc1cccs1)C(=O)CC1CCNC1 (stereo not drawn) | 329 | 159 |
